System: recombinant guanylate cyclase reporter cell line
Experiment: Effect on a recombinant guanylate cyclase reporter cell line
Assay type: cell-based
Conditions: in some cases mean values for individual determinations
Experimental: B-2. Effect on a Recombinant Guanylate Cyclase Reporter Cell Line
The cellular activity of the compounds according to the invention is determined using a recombinant guanylate cyclase reporter cell line, as described in F. Wunder et al., Anal. Biochem. 339, 104-112 (2005).
Representative MEC values (MEC=minimum effective concentration) for the compounds of the invention are shown in the table below (in some cases as mean values for individual determinations): […]

Compound	MEC (minimum effective concentration)
Cc1nc2c(OCc3c(F)cccc3F)cccn2c1C(=O)NCC(C)(N)CCCF (single isomer, unassigned; enantiomer a) [Example 1, ent-N-(2-amino-5-fluoro-2-methylpentyl)-8-[(2,6-difluorobenzyl)oxy]-2-methylimidazo[1,2-a]pyridine-3-carboxamide (enantiomer A)]	0.3 µM
Cc1nc2c(OCc3c(F)cccc3F)cccn2c1C(=O)NCC(C)(N)CC(F)F (single isomer, unassigned; enantiomer a) [Example 3, ent-N-(2-amino-4,4-difluoro-2-methylbutyl)-8-[(2,6-difluorobenzyl)oxy]-2-methylimidazo[1,2-a]pyridine-3-carboxamide (enantiomer A)]	0.3 µM
Cc1nc2c(OCc3c(F)cccc3F)cccn2c1C(=O)NCC(C)(N)CCC(F)(F)F (single isomer, unassigned; enantiomer a) [Example 5, ent-N-(2-amino-5,5,5-trifluoro-2-methylpentyl)-8-[(2,6-difluorobenzyl)oxy]-2-methylimidazo[1,2-a]pyridine-3-carboxamide (enantiomer A)]	0.1 µM
Cc1nc2c(OCc3c(F)cccc3F)cccn2c1C(=O)NCC(C)(N)CCCF (single isomer, unassigned; enantiomer b) [Example 2, ent-N-(2-amino-5-fluoro-2-methylpentyl)-8-[(2,6-difluorobenzyl)oxy]-2-methylimidazo[1,2-a]pyridine-3-carboxamide (enantiomer B)]	0.3 µM
Cc1nc2c(OCc3c(F)cccc3F)cccn2c1C(=O)NCC(C)(N)CC(F)F (single isomer, unassigned; enantiomer b) [Example 4, ent-N-(2-amino-4,4-difluoro-2-methylbutyl)-8-[(2,6-difluorobenzyl)oxy]-2-methylimidazo[1,2-a]pyridine-3-carboxamide (enantiomer B)]	0.3 µM
Cc1nc2c(OCc3c(F)cccc3F)cccn2c1C(=O)NCC(C)(N)CCC(F)(F)F (single isomer, unassigned; enantiomer b) [Example 6, ent-N-(2-amino-5,5,5-trifluoro-2-methylpentyl)-8-[(2,6-difluorobenzyl)oxy]-2-methylimidazo[1,2-a]pyridine-3-carboxamide (enantiomer B)]	0.03 µM
Cc1nc2c(OCc3c(F)ccc(F)c3F)cccn2c1C(=O)NCC(C)(N)CCC(F)(F)F (single isomer, unassigned; enantiomer b) [Example 7, ent-N-(2-amino-5,5,5-trifluoro-2-methylpentyl)-2-methyl-8-[(2,3,6-trifluorobenzyl)oxy]imidazo[1,2-a]pyridine-3-carboxamide (enantiomer B)]	0.09 µM

— US20170057958A1, “ENANTIOMERS OF THE N-(2-AMINO-5-FLUORO-2-METHYLPENTYL)-8-[(2,6-DIFLUOROBENZYL)OXY]-2-METHYLIMIDAZO[1,2-A]PYRIDINE-3-CARBOXAMIDE, AS WELL AS OF THE DI- AND TRIFLUORO DERIVATIVES FOR THE TREATMENT OF CARDIOVASCULAR DISEASES” (BAYER PHARMA AKTIENGESELLSCHAFT, priority 2014, published 2017)
